Measured values reported in patent publication US9655991B2, “Stable hydrogel compositions including additives” (Allergan Industries, S.A.S., priority 2010, dated 2017).

Assay: Oxidative degradation of gel by free radicals (H2O2) on rheometer
Settings: gel with AA2G and lidocaine vs gel with lidocaine
Text: The effect of ascorbic acid 2-glucoside (AA2G™) on HA-based gel matrix oxidative degradation was studied. Oxidation testing was used as it allows testing of the resistance of a HA-based gel matrix to free radicals. Degradation by free radicals was simulated on a rheometer (Haake Rheostress 600) by addition of 1/7 ratio of H2O2 30% on the surface of a spread gel measured with a controlled stress rheometer according to the following method: frequency of 1 Hz with 0.8% controlled strain, during 3600 s at 35° C. The time value is taken at 5 Pa/s.

O=C1O[C@H]([C@@H](O)CO)C(O)=C1O[C@H]1O[C@H](CO)[C@@H](O)[C@H](O)[C@H]1O [Ascorbic acid 2-glucoside (AA2G™), Ascorbic acid 2-glucoside]
Protection against oxidative degradation (factor): 3
